Values joined by “and” are separate entries in the source; they are usually repeats but may differ in a detail not shown here. Equal values may be shown once.
Legend:
[1] = tested on: retinal ganglion cells (RGCs); experiment: Rat in vivo OHT model, NeuN-positive RGC survival in whole mount retina; settings: OHT eyes, intravitreal, three weeks after microbead injection; single values
Method: (§1) Example 7. Rat in vivo OHT model induced by intracameral injection of microbeads—For induction of ocular hypertension (OHT) in vivo, sterile 6 μm polystyrene microbeads were injected into the anterior chamber of the left eye of each animal using a single-step, sclero-corneal tunnel approach with a 35G nanoneedle (FIG. 4A). […] After stabilization of elevated IOP, animals were randomly divided into 3 groups (non-treated OHT, AlloP injection, and ent-AlloP injection). AlloP and ent-AlloP were administered as a one-time intravitreal injection one week following bead injection. Non-treated OHT animals received sterile vehicle intravitreally. As a further control, vehicle was intravitreally injected 7 days after intracameral administration of 10 μl of PBS. Three weeks after bead injections, IOP was 26.7±3.7 mmHg in non-treated OHT eyes compared to 9.9±0.9 mmHg in control eyes. […]

[2] = tested on: NFL and optic nerves (ON); experiment: Rat in vivo OHT model, electron microscopy of AP and DAV in NFL and optic nerve; settings: in vivo OHT eyes; for Autophagosomes (AP) in the NFL (FIG. 5M), Total / Degenerative autophagic vacuoles (DAV) in the NFL (FIG. 5N), Total: Total of 10 areas; for Autophagosomes (AP)/25 μm2 in the NFL (FIG. 5M), individual areas 1-10 / Degenerative autophagic vacuoles (DAV)/25 μm2 in the NFL (FIG. 5N), individual areas 1-10 / Autophagosomes (AP)/100 μm2 in the ON (FIG. 5Y), individual areas 1-10 / Degenerative autophagic vacuoles (DAV)/100 μm2 in the ON (FIG. 5Z), individual areas 1-10: single values
Method: Example 7. Rat in vivo OHT model induced by intracameral injection of microbeads—For induction of ocular hypertension (OHT) in vivo, sterile 6 μm polystyrene microbeads were injected into the anterior chamber of the left eye of each animal using a single-step, sclero-corneal tunnel approach with a 35G nanoneedle (FIG. 4A). […] After stabilization of elevated IOP, animals were randomly divided into 3 groups (non-treated OHT, AlloP injection, and ent-AlloP injection). AlloP and ent-AlloP were administered as a one-time intravitreal injection one week following bead injection. Non-treated OHT animals received sterile vehicle intravitreally. As a further control, vehicle was intravitreally injected 7 days after intracameral administration of 10 μl of PBS. Three weeks after bead injections, IOP was 26.7±3.7 mmHg in non-treated OHT eyes compared to 9.9±0.9 mmHg in control eyes.
Rat in vivo OHT model—8-week old male Sprague-Dawley rats were deeply anesthetized with an intraperitoneal injection of a mixture of medetomidine hydrochloride (Cat #133-17474, CAS. No 86347-15-1, Wako Pure Chemical Industries Ltd., Osaka, Japan, 0.15 mg/kg), midazolam (Cat #135-13791, CAS. No 58786-99-5, Wako Pure Chemical Industries Ltd., 2 mg/kg), and butorphanol tartrate (Cat #021-19001, CAS. No […], Wako Pure Chemical Industries Ltd., 2.5 mg/kg), and intraocular pressure was increased unilaterally to approximately 35 mmHg, by intracameral injection of polystyrene microbeads using a single-step, sclero-corneal tunnel approach with a 35G-gauge nanoneedle (#LNAN-3505LM, Saito Medical Instruments Inc., Tokyo, Japan) connected to 100 μl WPI Nanofil 100 microsyringe (World Precision Instruments, Inc., Sarasota, FL). Sterile 6 μm polystyrene microbeads in a 1×10^6 microbeads/ml solution (Molecular Probes, Eugene, OR, USA) were concentrated to obtain a 1×10^7 microbeads/ml solution. This solution was suspended in PBS. The microbeads suspended in PBS were aspirated into a 100 μl Hamilton microsyringe and injected into the anterior chamber of […] of each animal. 10 μl of the microbead suspension were injected without contacting the cornea or iris with the needle. After stabilization of the elevated IOP, animals were randomly divided into 3 groups (non-treated OHT, AlloP injection, and ent-AlloP injection). AlloP and ent-AlloP were dissolved in 20% w/v (2-Hydroxypropyl)-β-cyclodextrin (2HBCD) in saline solution at concentration of 0.05% (w/v) solution, and injected into the vitreous chamber in a total volume of 1 μl using a Hamilton syringe adapted with a 35 G-gauge nanoneedle 1 week after the beads were injected under halothane inhalation anesthesia. OHT animals (vehicle control) received sterile 1 μl 20% (w/v) 2HBCD with PBS. As a further control, 1 μl 20% (w/v) 2HBCD was intravitreally injected 7 days after intracameral injection with 10 μl of PBS. The number of animals used in each experiment is indicated in the corresponding method. […] Ocular hypertension was monitored preoperatively, and at 3 days, 1 week, 2 weeks or 3 weeks after the beads were injected. IOP was measured using a laboratory tonometer (TonoLab, Icare, Finland).
Electron Microscopy—Retinal specimens were trimmed to a smaller size, and ultrathin sections (75 nm) were cut with a diamond knife and suspended over formvar-coated slot grids (1×2 mm opening). The sections were stained with uranyl acetate and lead citrate and viewed in a transmission electron microscope (H-7650, Hitachi High-Technologies Corp., Tokyo, Japan). Numbers of AP and DAV inside NFLs and axons were determined as the sum in 10 different areas of 25 μm^2 each from each sample. The analysis was performed in three eyes per experimental condition.

p62 = experiment: Rat in vivo OHT model, Western blot of p62; settings: in vivo OHT eyes, 3 weeks after microbead injection; relative units, control = 1.00; single values
Method: as §1

[3] = tested on: primary astrocyte cultures; settings: cited from earlier work
[4] = tested on: mouse model of Niemann-Pick Type C disease; settings: cited from earlier work

| Compound | RGC Survival (FIG. 4N), number of NeuN-positive cells, individual 1-5 [1] | Autophagosomes (AP) in the NFL (FIG. 5M), Total ([2]; intravitreal) | Degenerative autophagic vacuoles (DAV) in the NFL (FIG. 5N), Total ([2]; intravitreal) | Autophagosomes (AP)/25 μm2 in the NFL (FIG. 5M), individual areas 1-10 ([2]; intravitreal) | Degenerative autophagic vacuoles (DAV)/25 μm2 in the NFL (FIG. 5N), individual areas 1-10 ([2]; intravitreal) | Autophagosomes (AP)/100 μm2 in the ON (FIG. 5Y), individual areas 1-10 ([2]; optic nerve) | Degenerative autophagic vacuoles (DAV)/100 μm2 in the ON (FIG. 5Z), individual areas 1-10 ([2]; optic nerve) | p62 expression (FIG. 6D), individual experiments 1-4 (p62) | autophagy [3] | Degenerative autophagic vacuoles (DAV)/25 μm2 in the NFL (FIG. 5N), Average ([2]; intravitreal, Average of 10) | Autophagosomes (AP)/100 μm2 in the ON (FIG. 5Y), Average ([2]; optic nerve, Average of 10) | Degenerative autophagic vacuoles (DAV)/100 μm2 in the ON (FIG. 5Z), Average ([2]; optic nerve, Average of 10) | autophagy [4] |
| --- | --- | --- | --- | --- | --- | --- | --- | --- | --- | --- | --- | --- | --- |
| CC(=O)[C@@H]1CC[C@@H]2[C@H]3CC[C@@H]4C[C@@H](O)CC[C@@]4(C)[C@@H]3CC[C@]21C [ent-AlloP, ent-allopregnanolone] | 2060 per square millimeter and 2260 per square millimeter and 2500 per square millimeter and 2200 per square millimeter and 2460 per square millimeter | 1 | 22 | 0 /25 μm2 (9×) and 1 /25 μm2 | 1 /25 μm2 and 2 /25 μm2 (5×) and 4 /25 μm2 (2×) and 3 /25 μm2 and 0 /25 μm2 | 0 /100 μm2 (9×) and 1 /100 μm2 | 0 /100 μm2 and 1 /100 μm2 (8×) and 2 /100 μm2 | 0.92 and 0.91 and 1.00 and 1.61 | – | – | – | – | – |
| CC(=O)[C@H]1CC[C@H]2[C@@H]3CC[C@H]4C[C@H](O)CC[C@]4(C)[C@H]3CC[C@]12C [AlloP, allopregnanolone] | 2200 per square millimeter and 2240 per square millimeter and 1940 per square millimeter and 1860 per square millimeter and 1800 per square millimeter | 12 | 5 | 2 /25 μm2 (2×) and 1 /25 μm2 (8×) | 0 /25 μm2 (7×) and 2 /25 μm2 (2×) and 1 /25 μm2 | 1 /100 μm2 (9×) and 2 /100 μm2 | 0 /100 μm2 | 1.73 and 1.82 and 2.90 and 2.53 | activate autophagy | 0.5 /25 μm2 | 1.1 /100 μm2 | 0.0 /100 μm2 | activate autophagy |
